Data: PubChem BioAssay (NCI)
Values joined by “and” are separate entries in the source; they are usually repeats but may differ in a detail not shown here. Equal values may be shown once.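 Results reflect a 48-hour exposure of cells in 96-well plates to compound at five concentrations. GI50: concentration for 50% inhibition of growth. TGI marks complete inhibition of growth.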

What was measured:
Test in all cases: inhibition of tumour cell growth, NCI panel, 48 h
IGROV1 ovarian = test system: IGROV1 ovarian
MALME-3M melanoma = test system: MALME-3M melanoma
LOX IMVI melanoma = test system: LOX IMVI melanoma
T-47D breast = test system: T-47D breast
SNB-75 CNS = test system: SNB-75 CNS
786-0 renal = test system: 786-0 renal
HL-60(TB) leukemia = test system: HL-60(TB) leukemia
CAKI-1 renal = test system: CAKI-1 renal
SK-MEL-2 melanoma = test system: SK-MEL-2 melanoma
NCI-H460 lung = test system: NCI-H460 lung

Cn1cc(-c2cnc3ccc4ccc(CS(=O)(=O)NCc5ccccn5)cc4c(=O)c3c2)cn1 was tested, and the GI50 (IGROV1 ovarian) was 22.1 µM, the TGI (IGROV1 ovarian) was over 100 µM and the GI50 (MALME-3M melanoma) was 21.3 µM. It also gave a TGI (MALME-3M melanoma) of 73.1 µM, a GI50 (LOX IMVI melanoma) of 13.5 µM and a TGI (LOX IMVI melanoma) of 35.3 µM. For the same compound, the GI50 (T-47D breast) was 16.4 µM, the TGI (T-47D breast) was over 93 µM and the GI50 (SNB-75 CNS) was 6.45 µM. The TGI (SNB-75 CNS) was 47.8 µM, the GI50 (786-0 renal) was 27 µM and the TGI (786-0 renal) was over 100 µM. For the same compound, the GI50 (HL-60(TB) leukemia) was 9.15 µM, the TGI (HL-60(TB) leukemia) was 41.8 µM and the GI50 (CAKI-1 renal) was 14.2 µM. It also gave a TGI (CAKI-1 renal) of over 100 µM, a GI50 (SK-MEL-2 melanoma) of 11.8 µM and a TGI (SK-MEL-2 melanoma) of 53.4 µM. It also gave a GI50 (NCI-H460 lung) of 15.7 µM and a TGI (NCI-H460 lung) of 49.7 µM.
With Cc1cc(Nc2ncnc3ccc(NC4=NC(C)(C)CO4)cc23)ccc1Oc1ccn2ncnc2c1 the GI50 (IGROV1 ovarian) was 12.5 µM and > 10 µM, the TGI (IGROV1 ovarian) was over 100 µM and the GI50 (MALME-3M melanoma) was 14.7 µM and > 10 µM. For the same compound, the TGI (MALME-3M melanoma) was 35.7 µM and > 10 µM, the GI50 (LOX IMVI melanoma) was 13.4 µM and > 10 µM and the TGI (LOX IMVI melanoma) was 31.3 µM and > 10 µM. For the same compound, the GI50 (T-47D breast) was 1.33 µM and 1.75 µM, the TGI (T-47D breast) was 12.8 µM and > 10 µM and the GI50 (SNB-75 CNS) was 15.6 µM and > 10 µM. The TGI (SNB-75 CNS) was 51.9 µM and > 10 µM, the GI50 (786-0 renal) was 20.1 µM and > 10 µM and the TGI (786-0 renal) was over 81.5 µM. For the same compound, the GI50 (HL-60(TB) leukemia) was 21 µM and > 10 µM, the TGI (HL-60(TB) leukemia) was 46.1 µM and > 10 µM and the GI50 (CAKI-1 renal) was 6.3 µM and > 10 µM. For the same compound, the TGI (CAKI-1 renal) was over 61.1 µM, the GI50 (SK-MEL-2 melanoma) was 20.1 µM and > 10 µM and the TGI (SK-MEL-2 melanoma) was 46.4 µM and > 10 µM. For the same compound, the GI50 (NCI-H460 lung) was 17.9 µM and > 10 µM and the TGI (NCI-H460 lung) was 39.6 µM and > 10 µM.
O=C(Nc1ccccc1O)c1ccc(Oc2cccc(C(=O)Nc3ccccc3O)c2)cc1 gave a GI50 (IGROV1 ovarian) of 5.25 µM, a TGI (IGROV1 ovarian) of 27.3 µM and a GI50 (MALME-3M melanoma) of 1.48 µM. It also gave a TGI (MALME-3M melanoma) of 14 µM, a GI50 (LOX IMVI melanoma) of 2.24 µM and a TGI (LOX IMVI melanoma) of 12.2 µM. For the same compound, the GI50 (T-47D breast) was 3.13 µM, the TGI (T-47D breast) was 10.1 µM and the GI50 (SNB-75 CNS) was 1.67 µM. The TGI (SNB-75 CNS) was 7.73 µM, the GI50 (786-0 renal) was 2.84 µM and the TGI (786-0 renal) was 12.2 µM. It also gave a GI50 (HL-60(TB) leukemia) of 1.37 µM, a TGI (HL-60(TB) leukemia) of 10.4 µM and a GI50 (CAKI-1 renal) of 1.91 µM. It also gave a TGI (CAKI-1 renal) of 8.86 µM, a GI50 (SK-MEL-2 melanoma) of 1.73 µM and a TGI (SK-MEL-2 melanoma) of 5.87 µM. For the same compound, the GI50 (NCI-H460 lung) was 1.21 µM and the TGI (NCI-H460 lung) was 11 µM.
C=CCC1(O)c2cccc(NCCO)c2C(=O)c2c(NCCO)cccc21 was tested, and the GI50 (IGROV1 ovarian) was over 100 µM, the TGI (IGROV1 ovarian) was over 100 µM and the GI50 (MALME-3M melanoma) was over 100 µM. For the same compound, the TGI (MALME-3M melanoma) was over 100 µM, the GI50 (LOX IMVI melanoma) was over 100 µM and the TGI (LOX IMVI melanoma) was over 100 µM. It also gave a GI50 (T-47D breast) of over 100 µM, a TGI (T-47D breast) of over 100 µM and a GI50 (SNB-75 CNS) of 75.3 µM. The TGI (SNB-75 CNS) was over 100 µM, the GI50 (786-0 renal) was over 100 µM and the TGI (786-0 renal) was over 100 µM. The GI50 (HL-60(TB) leukemia) was over 100 µM, the TGI (HL-60(TB) leukemia) was over 100 µM and the GI50 (CAKI-1 renal) was over 100 µM. For the same compound, the TGI (CAKI-1 renal) was over 100 µM, the GI50 (SK-MEL-2 melanoma) was over 100 µM and the TGI (SK-MEL-2 melanoma) was over 100 µM. For the same compound, the GI50 (NCI-H460 lung) was over 100 µM and the TGI (NCI-H460 lung) was over 100 µM.
Work on O=C(O)c1cc2cc(OCc3ccccc3)c(OCc3ccccc3)cc2[nH]1 yielded a GI50 (IGROV1 ovarian) of 24.9 µM, a TGI (IGROV1 ovarian) of 54.2 µM and a GI50 (MALME-3M melanoma) of 25.9 µM. The TGI (MALME-3M melanoma) was 72.6 µM, the GI50 (LOX IMVI melanoma) was 18.1 µM and the TGI (LOX IMVI melanoma) was 35.4 µM. For the same compound, the GI50 (T-47D breast) was 23.9 µM, the TGI (T-47D breast) was over 100 µM and the GI50 (SNB-75 CNS) was 17.3 µM. For the same compound, the TGI (SNB-75 CNS) was 55.6 µM, the GI50 (786-0 renal) was 22.7 µM and the TGI (786-0 renal) was 48.4 µM. It also gave a GI50 (HL-60(TB) leukemia) of 22.9 µM, a TGI (HL-60(TB) leukemia) of over 100 µM and a GI50 (CAKI-1 renal) of 20.7 µM. It also gave a TGI (CAKI-1 renal) of 51.3 µM, a GI50 (SK-MEL-2 melanoma) of 21.4 µM and a TGI (SK-MEL-2 melanoma) of 44.7 µM. It also gave a GI50 (NCI-H460 lung) of 17.8 µM and a TGI (NCI-H460 lung) of 33.4 µM.
Work on O=C(O)c1cc(N=Cc2ccccc2O)cc(C(=O)O)c1 yielded a TGI (IGROV1 ovarian) of over 100 µM, a TGI (MALME-3M melanoma) of over 100 µM and a TGI (LOX IMVI melanoma) of over 100 µM. It also gave a TGI (T-47D breast) of over 100 µM, a TGI (SNB-75 CNS) of over 100 µM and a TGI (786-0 renal) of over 100 µM. The TGI (HL-60(TB) leukemia) was over 100 µM, the TGI (CAKI-1 renal) was over 100 µM and the TGI (SK-MEL-2 melanoma) was over 100 µM. The TGI (NCI-H460 lung) was over 100 µM.
